For test [1], the target named is T1, Beta-secretase 1 (Homo sapiens, UniProt P56817). Kind of test: Inhibition of BACE1 at 50 uM by FRET assay.
For test [2], the target named is T1, Beta-secretase 1. Kind of test: Inhibition of BACE1 by FRET assay.
Test [3] concerns the target T1, Beta-secretase 1. Kind of test: Inhibition of BACE1 at 25 uM by FRET assay.
Test [4] concerns the target T1, Beta-secretase 1. Kind of test: Inhibition of BACE1 at 100 uM by FRET assay.
The target in test [5] is Cathepsin D (Homo sapiens, UniProt P07339). The experiment in a line: Inhibition of cathepsin D by FRET assay.
Cathepsin D, sequence (P07339 65-162 limits assumed): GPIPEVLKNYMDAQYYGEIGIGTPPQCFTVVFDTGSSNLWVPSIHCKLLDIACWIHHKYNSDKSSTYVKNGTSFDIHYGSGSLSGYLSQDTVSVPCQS
Cathepsin D, sequence (P07339 169-412 limits assumed): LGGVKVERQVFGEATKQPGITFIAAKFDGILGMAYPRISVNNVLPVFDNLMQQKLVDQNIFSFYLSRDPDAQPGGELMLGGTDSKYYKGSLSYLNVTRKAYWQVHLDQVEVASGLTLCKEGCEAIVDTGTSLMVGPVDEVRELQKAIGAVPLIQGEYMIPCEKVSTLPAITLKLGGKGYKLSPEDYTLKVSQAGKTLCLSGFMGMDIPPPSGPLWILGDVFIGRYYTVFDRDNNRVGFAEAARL
The species entered for test [6] is Homo sapiens. Kind of test: Selectivity ratio of IC50 for cathepsin D to IC50 for BACE1.

For orientation: inhibition means the drop in the measured response relative to a control, in per cent. By IC50 is commonly meant the midpoint of a concentration-inhibition curve. A low value points to inhibition by little substance.

The structures appear in SMILES notation.

T1 sequence (P56817 whole entry): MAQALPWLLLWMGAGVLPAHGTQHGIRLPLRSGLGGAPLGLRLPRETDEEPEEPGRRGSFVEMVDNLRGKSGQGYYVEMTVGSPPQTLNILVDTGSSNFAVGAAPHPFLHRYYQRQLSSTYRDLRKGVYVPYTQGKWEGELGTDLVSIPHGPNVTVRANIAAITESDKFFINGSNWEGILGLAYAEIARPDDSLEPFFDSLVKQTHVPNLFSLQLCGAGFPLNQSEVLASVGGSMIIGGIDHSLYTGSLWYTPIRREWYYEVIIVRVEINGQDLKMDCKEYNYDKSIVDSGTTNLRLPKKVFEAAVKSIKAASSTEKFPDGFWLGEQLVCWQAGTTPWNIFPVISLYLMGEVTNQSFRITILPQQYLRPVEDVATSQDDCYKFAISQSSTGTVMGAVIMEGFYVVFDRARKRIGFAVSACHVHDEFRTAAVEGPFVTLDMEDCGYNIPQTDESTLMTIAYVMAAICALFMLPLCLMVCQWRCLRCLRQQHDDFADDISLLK

Take `Oc1ccccc1SCC(O)Cn1c(-c2ccccc2)cc2ccccc21` (stereo not drawn): the inhibition in test [1] came out at 102%; in test [3] it was 87%; in test [4] it was 86%. In test [2], this compound returned an IC50 of 25.4 µM.
On to `OC(CSc1ccc2ccccc2c1)Cn1ccc2ccccc21` (stereo not drawn), for which the IC50 in test [2] is 10.5 µM.
As for `NCCNC(CSc1ccc2ccccc2c1)Cn1c2ccccc2c2ccccc21` (racemic), the IC50 in test [2] was 7.38 µM; in test [5] it was above 300 µM.
Regarding `OC(CCn1c2ccccc2c2ccccc21)CSc1ccc2ccccc2c1` (stereo not drawn), the IC50 in test [2] was 4.31 µM; in test [5], above 300 µM.
`OC(CSc1ccc2ccccc2c1)C(O)Cn1c2ccccc2c2ccccc21` (stereo not drawn) yielded an IC50 in test [2] of 10.1 µM.
With `OC(CCSc1ccc2ccccc2c1)Cn1c2ccccc2c2ccccc21` (stereo not drawn), the IC50 in test [2] is 6.74 µM; in test [5], above 300 µM.
As to `OC(CSc1ccc2ccccc2c1)Cn1c(-c2ccccc2)cc2ccccc21` (stereo not drawn), the IC50 was 6.66 µM in test [2] and above 300 µM in test [5]. For the same compound, in test [6], the Ratio IC50 was 50.
Take `O[C@@H](CSc1ccc2ccccc2c1)Cn1c2ccccc2c2ccccc21`: the IC50 in test [2] was 7.98 µM; in test [5], above 300 µM.
For the compound `OC(CSCCCc1ccccc1)Cn1c2c(c3ccccc31)CCC2` (stereo not drawn), the figures for the inhibition in test [1], in test [3] and in test [4] were 81%, 53% and 96%, respectively.
The like results for `OC(CSc1ccccc1F)Cn1c2c(c3ccccc31)CCC2` (stereo not drawn) were, in that order, 82%, 51% and 94%.
`c1ccc2cc(SCC(Cn3c4ccccc4c4ccccc43)N3CCNCC3)ccc2c1` (racemic) displayed an IC50 in test [2] above 50 µM.
In the case of `c1ccc2cc(SCCCn3c4ccccc4c4ccccc43)ccc2c1`, the IC50 in test [2] was 7.52 µM; in test [5], above 300 µM.
For `CCc1cccc2ccn(CC(O)CSc3ccc(OC)cc3)c12` (stereo not drawn), the inhibition in test [1] was determined as 54%; in test [3], 11%; in test [4], 83%.
Turning to `Oc1ccccc1SCC(O)COc1ccc(Cc2ccccc2)cc1` (stereo not drawn), the inhibition in test [1] was found to be 101%; in test [3] it was 90%; in test [4] it was 84%.
Consider `OC(CSc1ccccc1F)Cn1c2ccccc2c2ccccc21` (stereo not drawn), for which the figures for the inhibition in test [1], in test [3] and in test [4] were 84%, 67% and 89%, respectively. Moreover, the IC50 was 5.36 µM in test [2] and above 300 µM in test [5].
With `COc1ccc(SCC(O)Cn2c(C)c(C)c3ccccc32)c(OC)c1` (stereo not drawn), the inhibition in test [1] was 37%; in test [3], 0%; in test [4], 83%.
For `NC(CSc1ccc2ccccc2c1)Cn1c2ccccc2c2ccccc21` (racemic), the concentration for half-maximal inhibition (IC50) in test [2] turned out to be 15.7 µM.
Consider `Oc1ccc(SCC(O)Cn2c(-c3ccccc3)cc3ccccc32)cc1` (stereo not drawn), for which the values for the inhibition in test [1], in test [3] and in test [4] were 77%, 72% and 86%, respectively. In addition, inhibition in test [2] was half-maximal at 13.6 µM (IC50).
With `COc1ccc(SCC(O)Cn2c3ccccc3c3ccccc32)c(OC)c1` (stereo not drawn), the inhibition in test [1] worked out at 69%; in test [3], 22%; in test [4], 80%.
In test [2], `O=C(CSc1ccc2ccccc2c1)Cn1c2ccccc2c2ccccc21` showed an IC50 above 80 µM.
As to `COc1ccc(SCC(O)Cn2c3c(c4ccccc42)CCC3)cc1` (stereo not drawn), the inhibition in test [1] came out at 74%; in test [3], 27%; in test [4], 85%.
With `Nc1cccc(SCC(O)Cn2c3ccccc3c3ccccc32)c1` (stereo not drawn), the inhibition came to 87% in test [1], 69% in test [3] and 100% in test [4]. This compound came in with an IC50 in test [2] of 36.1 µM.
Consider `O[C@H](CSc1ccc2ccccc2c1)Cn1c2ccccc2c2ccccc21`, for which the IC50 in test [2] was 5.39 µM; in test [5], above 300 µM.
Take `CCc1cccc2ccn(CC(O)CSc3ccc(F)cc3)c12` (stereo not drawn): the inhibition in test [1] was 41%; in test [3], 48%; in test [4], 86%.
On to `OC(CSc1ccc2ccccc2c1)Cn1c2ccccc2c2ccccc21` (stereo not drawn), for which the inhibition in test [1] came out at 74%; in test [3] it was 64%; in test [4] it was 76%. The IC50 in test [2] is 4.93 µM; in test [5], above 300 µM. Moreover, the Ratio IC50 in test [6] was 50.
As for `CCc1cccc2ccn(CC(O)CSc3ccccc3Cl)c12` (stereo not drawn), the inhibition in test [1] worked out at 87%; in test [3], 65%; in test [4], 99%. Moreover, the results for the IC50 in test [2] and in test [5] were 7.52 µM and above 300 µM, respectively.
With `OC(CSc1ccccc1Cl)Cn1c2c(c3ccccc31)CCCC2` (stereo not drawn), the inhibition in test [1] amounted to 99%; in test [3], 68%; in test [4], 92%. Also, the IC50 in test [2] is 8.28 µM; in test [5] it was above 300 µM.
For the compound `CCc1ccccc1SCC(O)Cn1c(-c2ccccc2)cc2ccccc21` (stereo not drawn), the inhibition in test [1] is 72%; in test [3], 60%; in test [4] it was 80%. In test [2], this compound returned an IC50 of 10.3 µM.
`OC(CSc1ccccc1)Cn1c2c(c3ccccc31)CCC2` (stereo not drawn): the inhibition in test [1] is 64%; in test [3], 35%; in test [4], 85%.
For `OC(CSc1ccc(Cl)cc1)Cn1c(-c2ccccc2)cc2ccccc21` (stereo not drawn), the figures for the inhibition in test [1], in test [3] and in test [4] were 69%, 56% and 82%, respectively.
Regarding `COc1ccc(SCC(O)Cn2c3ccccc3c3ccccc32)cc1` (stereo not drawn), the inhibition was 72% in test [1], 37% in test [3] and 88% in test [4].
The matching figures for `Cc1c(C)n(CC(O)CSc2ccccc2Cl)c2ccccc12` (stereo not drawn): 93%, 68% and 100%.
Turning to `CCc1ccc(SCC(O)Cn2ccc3cccc(CC)c32)cc1` (stereo not drawn), the inhibition in test [1] turned out to be 61%; in test [3], 38%; in test [4] it was 92%.
Take `OC(CSc1ccccc1F)Cn1c2c(c3ccccc31)CCCC2` (stereo not drawn): the inhibition in test [1] came to 86%; in test [3], 68%; in test [4], 95%. The same compound registered a half-maximal inhibitory concentration (IC50) in test [2] of 11 µM.
For `OC(CSc1nnnn1-c1ccccc1)Cn1c2c(c3ccccc31)CCC2` (stereo not drawn), the values for the inhibition in test [1], in test [3] and in test [4] were 76%, 37% and 87%, respectively.
Take `Oc1ccc(SCC(O)COc2ccc(Cc3ccccc3)cc2)cc1` (stereo not drawn): the inhibition stood at 100% in test [1], 85% in test [3] and 94% in test [4]. In test [2], this compound displayed an IC50 of 10.7 µM.
Turning to `Cc1ccccc1SCC(O)Cn1c2c(c3ccccc31)CCC2` (stereo not drawn), the inhibition worked out at 89% in test [1], 73% in test [3] and 92% in test [4]. The compound further came in with an IC50 in test [2] of 21.4 µM.
In test [2], `OC(CCn1c2ccccc2c2ccccc21)Cn1c2ccccc2c2ccccc21` (stereo not drawn) came in with an IC50 above 100 µM.
For the compound `OC(Cn1c2ccccc2c2ccccc21)Cn1c2ccccc2c2ccccc21`, the half-inhibitory concentration (IC50) in test [2] is 0.71 µM; in test [5] it was above 300 µM. In addition, the Ratio IC50 in test [6] is above 422.
As for `COc1ccc(SCC(O)Cn2c3c(c4ccccc42)CCCC3)cc1` (stereo not drawn), the inhibition was found to be 90% in test [1], 58% in test [3] and 87% in test [4]. Also, the IC50 in test [2] came out at 15.2 µM.
`OC(COc1ccc(Cc2ccccc2)cc1)CSc1ccccc1Cl` (stereo not drawn): the inhibition was determined as 73% in test [1], 62% in test [3] and 81% in test [4]. The IC50 in test [2] was 9.6 µM; in test [5], above 300 µM.
As to `OC(Cn1c2ccccc2c2ccccc21)C(O)Cn1c2ccccc2c2ccccc21` (stereo not drawn), the IC50 is 8.82 µM in test [2] and above 300 µM in test [5].
`Cc1ccc(SCC(O)Cn2c3c(c4ccccc42)CCC3)cc1` (stereo not drawn): the inhibition in test [1] came to 81%; in test [3], 55%; in test [4], 91%.
As for `OC(CSc1ccc2ccccc2c1)CSc1ccc2ccccc2c1`, in test [2], the IC50 is above 30 µM.
Turning to `Cc1ccc(SCC(O)Cn2c(-c3ccccc3)cc3ccccc32)cc1` (stereo not drawn), the inhibition was determined as 65% in test [1], 45% in test [3] and 76% in test [4].

The values above are taken from ChEMBL document CHEMBL2057073, “Synthesis and structure-activity relationship studies of 1,3-disubstituted 2-propanols as BACE-1 inhibitors” (Bioorg Med Chem Lett, 2012).
